For orientation: MIC means the smallest concentration in the dilution series that meets the test's criterion for growth inhibition.

Values after ≈ are worked out from the molar mass of the structure shown. Where a name gives a salt, the structure may show the parent alone.

Common to all, as to assay: Antibacterial activity, microbroth dilution method (MIC)
Assay [1] relates to super sensitive Gram-negative Escherichia coli (E. coli) BAS849. Format: cell-based. The following applies: super sensitive Gram-negative E. coli BAS849, microbroth dilution; for MIC: Escherichia coli, read-out: MIC, E. coli BAS849. The text has this:
(§1) The antibacterial activity from a microbroth dilution method may be presented as the minimum inhibitory concentration (MIC in μg/mL). The MIC value is the lowest concentration of drug which prevents macroscopically visible growth under test conditions.
(§2) Antibacterial activity of test compounds against the super sensitive Gram-negative Escherichia coli (E. coli) BAS849 bacterium, the control Gram-negative E. coli 25922 strain and the Gram-positive Staphylococcus aureus (S. aureus) 29213 bacterium are shown in Table 1.
In general terms: Dilution methods test growth across graded concentrations, often in twofold steps.

The subject of assay [2] is Gram-positive Staphylococcus aureus (S. aureus) 29213. Format: cell-based. The following applies: Gram-positive S. aureus 29213; for MIC: Staphylococcus aureus.
From the text: as §1, §2

Assay [3] relates to control Gram-negative E. coli 25922 strain. Type of assay: cell-based, Escherichia coli. The following applies: for MIC: Escherichia coli.
From the text: as §1, §2

On to `Cn1c2c(cc(C(=O)O)c1=O)CC=Cc1cc3c(ccn3C)cc1-2` [Cpd 130, 1,9-dimethyl-2-oxo-1,2,5,9-tetrahydropyrido[3′,2′:6,7]cyclohepta[1,2-f]indole-3-carboxylic acid], for which the MIC was under 1 µg/mL in assay [1], 12.5 to 150 µg/mL (≈ 39 to 468 µM) in assay [2] and 3.5 to 12.5 µg/mL (≈ 10.9 to 39 µM) in assay [3].

As for `Cl.Cl.Cn1c(CN2CCCC(N)C2)cc2cc3c(cc21)CCCc1c-3[nH]c(=O)c(C(=O)O)c1O` (stereo not drawn) [Cpd 31, 10-((3-aminopiperidin-1-yl)methyl)-4-hydroxy-9-methyl-2-oxo-1,2,5,6,7,9-hexahydropyrido[3′,2′:6,7]cyclohepta[1,2-f]indole-3-carboxylic acid dihydrochloride], the minimum inhibitory concentration (MIC) in assay [1] was 1 to 3.5 µg/mL; in assay [2] it was 12.5 to 150 µg/mL; in assay [3], 3.5 to 12.5 µg/mL.

Turning to `CNCc1cc2cc3c(cc2n1C)C=CCc1c-3[nH]c(=O)c(C(=O)O)c1O.Cl` [Cpd 68, 4-hydroxy-9-methyl-10-((methylamino)methyl)-2-oxo-1,2,5,9-tetrahydropyrido[3′,2′:6,7]cyclohepta[1,2-f]indole-3-carboxylic acid hydrochloride], the MIC is under 1 µg/mL in assay [1], 3.5 to 12.5 µg/mL in assay [2] and under 1 µg/mL in assay [3].

On to `Cl.Cn1c(CN2CCC(O)CC2)cc2cc3c(cc21)CCCc1c-3[nH]c(=O)c(C(=O)O)c1O` [Cpd 28, 4-hydroxy-10-((4-hydroxypiperidin-1-yl)methyl)-9-methyl-2-oxo-1,2,5,6,7,9-hexahydropyrido[3′,2′:6,7]cyclohepta[1,2-f]indole-3-carboxylic acid hydrochloride], for which the minimum inhibitory concentration (MIC) is under 1 µg/mL in assay [1], 3.5 to 12.5 µg/mL in assay [2] and 1 to 3.5 µg/mL in assay [3].

For the compound `N[C@@H]1[C@H]2CN(c3cc(F)c4c(c3)CCCc3c-4[nH]c(=O)c(C(=O)O)c3O)C[C@@H]12` [Cpd 125, 9-((cis,cis)-6-amino-3-azabicyclo[3.1.0]hexan-3-yl)-11-fluoro-4-hydroxy-2-oxo-2,5,6,7-tetrahydro-1H-benzo[6,7]cyclohepta[1,2-b]pyridine-3-carboxylic acid hydrochloride], the MIC in assay [1] is under 1 µg/mL; in assay [2], 12.5 to 150 µg/mL; in assay [3], 3.5 to 12.5 µg/mL.

As for `Cl.Cn1c(CN2CCC2)cc2cc3c(cc21)CCc1c-3[nH]c(=O)c(C(=O)O)c1O` [Cpd 21, 9-(azetidin-1-ylmethyl)-4-hydroxy-8-methyl-2-oxo-2,5,6,8-tetrahydro-1H-indolo[6,5-h]quinoline-3-carboxylic acid hydrochloride], the MIC in assay [1] lay in the range of 1 to 3.5 µg/mL; in assay [2], 12.5 to 150 µg/mL; in assay [3], 3.5 to 12.5 µg/mL.

`CCCNCc1cc2cc3c(cc2n1C)OCCc1c-3[nH]c(=O)c(C(=O)O)c1O.Cl` [Cpd 169, 4-hydroxy-9-methyl-2-oxo-10-((propylamino)methyl)-2,5,6,9-tetrahydro-1H-pyrido[2′,3′:4,5]oxepino[3,2-f]indole-3-carboxylic acid hydrochloride]: the results for the MIC in assay [1], in assay [2] and in assay [3] were under 1 µg/mL, 3.5 to 12.5 µg/mL and under 1 µg/mL, respectively.

Turning to `CCCNCc1cc2cc3c(cc2n1C)CCCc1c-3[nH]c(=O)c(C(=O)O)c1O.Cl` [Cpd 44, 4-hydroxy-9-methyl-2-oxo-10-((propylamino)methyl)-1,2,5,6,7,9-hexahydropyrido[3′,2′:6,7]cyclohepta[1,2-f]indole-3-carboxylic acid hydrochloride], the minimal inhibitory concentration (MIC) in assay [1] is under 1 µg/mL; in assay [2], 3.5 to 12.5 µg/mL; in assay [3], under 1 µg/mL.

For `N[C@@H]1[C@H]2CN(c3ccc4c(c3)CCCCc3c-4[nH]c(=O)c(C(=O)O)c3O)C[C@@H]12` [Cpd 127, 10-((cis,cis)-6-amino-3-azabicyclo[3.1.0]hexan-3-yl)-4-hydroxy-2-oxo-1,2,5,6,7,8-hexahydrobenzo[7,8]cycloocta[1,2-b]pyridine-3-carboxylic acid hydrochloride], the MIC in assay [1] was under 1 µg/mL; in assay [2], 3.5 to 12.5 µg/mL; in assay [3], under 1 µg/mL.

Take `CCNCc1cc2cc3c(cc2n1C)Cc1c-3[nH]c(=O)c(C(=O)O)c1O.Cl` [Cpd 19, 2-((ethylamino)methyl)-8-hydroxy-1-methyl-6-oxo-1,5,6,9-tetrahydropyrido[3′,2′:4,5]cyclopenta[1,2-f]indole-7-carboxylic acid hydrochloride]: the MIC in assay [1], in assay [2] and in assay [3] was 12.5 to 150 µg/mL each time.

`CN(Cc1ccccc1)[C@H]1[C@@H]2CN(c3ccc4c(c3)CCCc3c-4[nH]c(=O)c(C(=O)O)c3O)C[C@@H]21` [Cpd 10, 9-((cis,cis)-6-(benzyl(methyl)amino)-3-azabicyclo[3.1.0]hexan-3-yl)-4-hydroxy-2-oxo-2,5,6,7-tetrahydro-1H-benzo[6,7]cyclohepta[1,2-b]pyridine-3-carboxylic acid hydrochloride]: the results for the MIC in assay [1], in assay [2] and in assay [3] were 3.5 to 12.5 µg/mL, 1 to 3.5 µg/mL and 12.5 to 150 µg/mL, respectively.

Regarding `CN1CCC2(CCN(c3ccc4c(c3)CCCc3c-4[nH]c(=O)c(C(=O)O)c3O)C2)C1.Cl` (stereo not drawn) [Cpd 123, 4-hydroxy-9-(7-methyl-2,7-diazaspiro[4.4]nonan-2-yl)-2-oxo-2,5,6,7-tetrahydro-1H-benzo[6,7]cyclohepta[1,2-b]pyridine-3-carboxylic acid hydrochloride], the values for the minimum inhibitory concentration (MIC) in assay [1], in assay [2] and in assay [3] were under 1 µg/mL, 12.5 to 150 µg/mL and 3.5 to 12.5 µg/mL, respectively.

For the compound `CN(C)c1ccc2c(c1)CCCc1c-2[nH]c(=O)c(C(=O)O)c1O` [Cpd 3, 9-(dimethylamino)-4-hydroxy-2-oxo-2,5,6,7-tetrahydro-1H-benzo[6,7]cyclohepta[1,2-b]pyridine-3-carboxylic acid], the minimum inhibitory concentration (MIC) in assay [1] is under 1 µg/mL; in assay [2], 3.5 to 12.5 µg/mL (≈ 11.1 to 39.8 µM); in assay [3], 3.5 to 12.5 µg/mL (≈ 11.1 to 39.8 µM).

`CC(CO)NCc1cc2cc3c(cc2n1C)OCCc1c-3[nH]c(=O)c(C(=O)O)c1O.Cl` (stereo not drawn) [Cpd 178, 4-hydroxy-10-(((1-hydroxypropan-2-yl)amino)methyl)-9-methyl-2-oxo-2,5,6,9-tetrahydro-1H-pyrido[2′,3′:4,5]oxepino[3,2-f]indole-3-carboxylic acid hydrochloride]: the values for the MIC in assay [1], in assay [2] and in assay [3] were under 1 µg/mL, 12.5 to 150 µg/mL and 12.5 to 150 µg/mL, respectively.

Turning to `Cn1ccc2cc3c(c(F)c21)CCCc1c-3[nH]c(=O)c(C(=O)O)c1O` [Cpd 18, 8-fluoro-4-hydroxy-9-methyl-2-oxo-1,2,5,6,7,9-hexahydropyrido[3′,2′:6,7]cyclohepta[1,2-f]indole-3-carboxylic acid], the values for the MIC in assay [1], in assay [2] and in assay [3] were under 1 µg/mL, 1 to 3.5 µg/mL (≈ 2.92 to 10.2 µM) and 3.5 to 12.5 µg/mL (≈ 10.2 to 36.5 µM), respectively.

`NC1C2CN(c3ccc4c(c3)C(O)CCc3c-4[nH]c(=O)c(C(=O)O)c3O)CC12.O=C(O)C(F)(F)F` (stereo not drawn) [Cpd 14, 9-((cis,cis)-6-amino-3-azabicyclo[3.1.0]hexan-3-yl)-4,7-dihydroxy-2-oxo-2,5,6,7-tetrahydro-1H-benzo[6,7]cyclohepta[1,2-b]pyridine-3-carboxylic acid trifluoroacetate salt]: the “MIC, E. coli BAS849” value in assay [1] is “* (an MIC value between >12.5 μg/mL and ≦150 μg/mL)”. For the same compound, in assay [2], the “MIC, S. aureus 29213” value was “* (an MIC value between >12.5 μg/mL and ≦150 μg/mL)”. In addition, the “MIC, E. coli 25922” value in assay [3] is “* (an MIC value between >12.5 μg/mL and ≦150 μg/mL)”.

Regarding `CNCc1cc2cc3c(cc2n1C)CCCCc1c-3[nH]c(=O)c(C(=O)O)c1O.Cl` [Cpd 58, 4-hydroxy-10-methyl-11-((methylamino)methyl)-2-oxo-2,5,6,7,8,10-hexahydro-1H-pyrido[3′,2′:7,8]cycloocta[1,2-f]indole-3-carboxylic acid hydrochloride], the MIC was under 1 µg/mL in assay [1], 3.5 to 12.5 µg/mL in assay [2] and under 1 µg/mL in assay [3].

Regarding `CN(C)CCNCc1cc2cc3c(cc2n1C)CCCc1c-3[nH]c(=O)c(C(=O)O)c1O.Cl.Cl` [Cpd 142, 10-(((2-(dimethylamino)ethyl)amino)methyl)-4-hydroxy-9-methyl-2-oxo-1,2,5,6,7,9-hexahydropyrido[3′,2′:6,7]cyclohepta[1,2-f]indole-3-carboxylic acid dihydrochloride], the MIC in assay [1] is under 1 µg/mL; in assay [2], 12.5 to 150 µg/mL; in assay [3], 3.5 to 12.5 µg/mL.

Consider `CC1CCc2cc(N3C[C@@H]4[C@@H](N)[C@@H]4C3)ccc2-c2[nH]c(=O)c(C(=O)O)c(O)c21` (stereo partly drawn) [Cpd 13, 9-((cis,cis)-6-amino-3-azabicyclo[3.1.0]hexan-3-yl)-4-hydroxy-5-methyl-2-oxo-2,5,6,7-tetrahydro-1H-benzo[6,7]cyclohepta[1,2-b]pyridine-3-carboxylic acid hydrochloride], for which the MIC in assay [1] is under 1 µg/mL; in assay [2], 3.5 to 12.5 µg/mL; in assay [3], 1 to 3.5 µg/mL.

Turning to `CCNCc1cc2c3c(ccc2n1C)-c1[nH]c(=O)c(C(=O)O)c(O)c1CCC3.Cl` [Cpd 61, 2-((ethylamino)methyl)-7-hydroxy-1-methyl-9-oxo-1,4,5,6,9,10-hexahydropyrido[2′,3′:3,4]cyclohepta[1,2-e]indole-8-carboxylic acid hydrochloride], the results for the MIC in assay [1], in assay [2] and in assay [3] were 3.5 to 12.5 µg/mL, 12.5 to 150 µg/mL and 3.5 to 12.5 µg/mL, respectively.

In the case of `CC1Cc2cc(N(C)C)ccc2-c2[nH]c(=O)c(C(=O)O)c(O)c21` (stereo not drawn) [Cpd 108, 8-(dimethylamino)-4-hydroxy-5-methyl-2-oxo-1,2,5,6-tetrahydrobenzo[h]quinoline-3-carboxylic acid], the figures for the minimum inhibitory concentration (MIC) in assay [1], in assay [2] and in assay [3] were under 1 µg/mL, 3.5 to 12.5 µg/mL (≈ 11.1 to 39.8 µM) and 12.5 to 150 µg/mL (≈ 39.8 to 477 µM), respectively.

Take `O=C(O)c1c(O)c2c([nH]c1=O)-c1ccc(N3CCCC3)cc1SCC2` [Cpd 186, 4-hydroxy-2-oxo-9-(pyrrolidin-1-yl)-1,2,5,6-tetrahydrobenzo[2,3]thiepino[4,5-b]pyridine-3-carboxylic acid]: the minimum inhibitory concentration (MIC) is under 1 µg/mL in assay [1], 3.5 to 12.5 µg/mL (≈ 9.77 to 34.9 µM) in assay [2] and 12.5 to 150 µg/mL (≈ 34.9 to 419 µM) in assay [3].

These data come from patent US20150038438A1, “ANTIBACTERIAL COMPOUNDS AND METHODS FOR USE” (PTC THERAPEUTICS, INC., priority 2011, published 2015).
